Usually EC50 stands for the concentration at which the effect is half-maximal.

Read-outs that look alike come from different tables or passages of the source.

Assay [1] deals with T. gondii tachyzoites (ME49-FLUC) in HeLa cells. Nature of the assay: Luciferase based growth assay, multi-point dose response. Type of assay: cell-based. To be noted: Toxoplasma gondii, 72 h.
The test system of assay [2] is GFP-LC3 recruitment to the T. gondii parasite-containing vacuole in GFP-LC3 HeLa cells. Nature of the assay: Image based GFP-LC3 recruitment assay. Type of assay: cell-based, Toxoplasma gondii. The conditions noted are these: IFN-γ 50 U/mL, HeLa cells activated 24 h, 6 h post-infection.

Regarding `CCc1nc(N)nc(N)c1-c1ccc(Cl)cc1` [Pyrimethamine], the results for the EC50 in assay [1] (read-out: EC50+ IFN-γ) and in assay [1] (read-out: EC50 Naïve) were 200 nM and 160 nM, respectively.

B1: IFN-γ: recombinant human IFN-γ (R&D Systems, 285-IF-100/CF) (protein, UniProt P01579 24-161, looked up)
Interferon gamma: QDPYVKEAENLKKYFNAGHSDVADNGTLFLGILKNWKEESDRKIMQSQIVSFYFKLFKNFKDDQSIQKSVETIKEDMNVKFFNSNKKKRDDFEKLTNYSVTDLNVQRKAIHELIQVMAELSPAAKTGKRKRSQMLFRG
Consider B1, for which, in assay [2], the “GFP-LC3 positive parasite-containing vacuoles” value turned out to be 12.4%.

The values above are taken from paper PMC6200635 (ACS infectious diseases, 2018).
